Assay results taken from patent US11896592B2, “Certain triazolopyridines and triazolopyrazines, compositions thereof and methods of use therefor” (Hutchison Medipharma Limited, priority 2009, dated 2024).

What follows are compounds tested against T1, Recombinant human Met (c-Met) (Homo sapiens, UniProt P08581) (assay: Inhibition of c-Met kinase activity using Transcreener FP assay). Settings: IC50, inhibition of c-Met kinase activity, Poly E4Y substrate, 28° C. 45 min.
T1 construct: purchased Invitrogen PV3143
T1 sequence (P08581 956-1390 limits assumed): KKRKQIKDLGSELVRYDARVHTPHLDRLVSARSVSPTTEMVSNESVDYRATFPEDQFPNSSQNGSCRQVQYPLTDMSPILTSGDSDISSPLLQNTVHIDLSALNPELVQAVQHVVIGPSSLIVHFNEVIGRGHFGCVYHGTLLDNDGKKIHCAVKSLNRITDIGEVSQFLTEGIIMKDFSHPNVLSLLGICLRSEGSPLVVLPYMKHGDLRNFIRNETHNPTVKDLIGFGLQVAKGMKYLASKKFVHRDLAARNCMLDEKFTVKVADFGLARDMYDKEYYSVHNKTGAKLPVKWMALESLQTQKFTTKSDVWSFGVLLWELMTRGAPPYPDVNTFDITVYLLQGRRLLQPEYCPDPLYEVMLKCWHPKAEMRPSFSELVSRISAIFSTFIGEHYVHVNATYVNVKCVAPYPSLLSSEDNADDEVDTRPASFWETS
Type: biochemical

Row | SMILES | IC50 [nM]
1 | CC(c1ccc2nccn2c1)n1nnc2ncc(-c3cnn(C)c3)nc21 (racemic) [Compound 331] | 1 to 100
2 | C[C@H](c1ccc2nccn2c1)n1nnc2ncc(-c3cnn(C)c3)nc21 [Compound 271] | 1 to 100

Same assay, conditions: Poly E4Y substrate, 28° C. 45 min, read-out: IC50, inhibition of c-Met kinase activity

Row | SMILES | IC50 [nM]
3 | CC(c1ccc2nccn2c1)n1nnc2ncc(-c3cnn(CC(F)(F)F)c3)nc21 (stereo not drawn) [Compound 277] | 1 to 100
4 | COc1ccc(-c2ccc3nnn(Cc4ccc5ncccc5c4)c3n2)cn1 [Compound 70] | 1 to 100
5 | c1nn(C2CNC2)cc1-c1cnc2nnn(Cc3cc4[nH]ncc4s3)c2n1 [Compound 283] | 1 to 100
6 | CC(c1ccc2ncsc2c1)n1nnc2ncc(-c3cnn(C)c3)nc21 (stereo not drawn) [Compound 19] | 1 to 100
7 | c1cnc2ccc(Cn3nnc4ccc(-c5cn[nH]c5)nc43)cc2c1 [Compound 145] | 1 to 100
8 | Cn1cc(-c2ccc3nnn(Cc4cc5cnccc5s4)c3n2)cn1 [Compound 71] | 100 to 1000
9 | OCCn1cc(-c2cnc3nnn(Cc4csc5ncccc45)c3n2)cn1 [Compound 30] | 100 to 1000
10 | Cn1cc(-c2cnc3nnn(Cc4ccc5ncc(C=O)n5c4)c3n2)cn1 [Compound 307, 6-((6-(1-Methyl-1H-pyrazol-4-yl)-1H-[1,2,3]triazolo[4,5-b]pyrazin-1-yl)methyl)-imidazo[1,2-a]pyridine-3-carbaldehyde] | 1 to 100
11 | Cc1cc(Nc2cnc3nnn(Cc4ccc5ncccc5c4)c3n2)on1 [Compound 160] | 1 to 100
12 | c1cn2cc(Cn3nnc4ccc(-c5cnn(C6CCOCC6)c5)nc43)ccc2n1 [Compound 143] | 100 to 1000
13 | OCCn1cc(-c2cnc3nnn(Cc4ccc5ncnn5c4)c3n2)cn1 [Compound 54] | 1 to 100
14 | c1cncc(Nc2cnc3nnn(Cc4ccc5ncccc5c4)c3n2)c1 [Compound 212] | 1 to 100
15 | CN(c1ccncc1)c1cnc2nnn(Cc3ccc4ncccc4c3)c2n1 [Compound 177] | 1 to 100
16 | c1cnc2ccc(Cn3nnc4ncc(Nc5ccncc5)nc43)cc2c1 [Compound 169] | 1 to 100
17 | N#Cc1cc(Nc2ccc3nnn(Cc4ccc5ncccc5c4)c3n2)ccn1 [Compound 215] | 1 to 100
18 | c1cnc2ccc(Cn3nnc4ccc(Nc5ccncc5)nc43)cc2c1 [Compound 236] | 100 to 1000
19 | FC(F)(F)c1cccc(Nc2cnc3nnn(Cc4ccc5ncccc5c4)c3n2)n1 [Compound 221] | 1 to 100
20 | Cn1cc(-c2ccc3nnn(Cc4ccc5ncnn5c4)c3n2)cn1 [Compound 120] | 100 to 1000
21 | Cn1cc(-c2cnc3nnn(Cc4ccc5ncsc5n4)c3n2)cn1 [Compound 289] | 100 to 1000
22 | CC(=O)Nc1cc(-c2cnn(C)c2)nc2c1nnn2Cc1ccc2ncccc2c1 [Compound 261, N-(5-(1-methyl-1H-pyrazol-4-yl)-3-(quinolin-6-ylmethyl)-3H-[1,2,3]triazolo[4,5-b]pyridin-7-yl)acetamide] | 100 to 1000

Row | SMILES | IC50 [nM]
23 | COc1ccc(-c2cnc3nnn(Cc4ccc5ncnn5c4)c3n2)cc1 [Compound 59] | 1 to 100
24 | OCCn1cc(-c2ccc3nnn(Cc4ccc5ncccc5c4F)c3n2)cn1 [Compound 130] | 1 to 100
25 | O[C@@H]1CCC[C@H]1Nc1ccnc(Nc2ccc3nnn(Cc4ccc5ncccc5c4)c3n2)c1 [Compound 219] | 100 to 1000
26 | CN(C)Cc1cnc2ccc(Cn3nnc4ncc(-c5cnn(C)c5)nc43)cn12 [Compound 319] | 1 to 100
27 | CCOC(=O)Cn1cc(-c2ccc3nnn(Cc4ccc5ncccc5c4)c3n2)cn1 [Compound 65] | 1 to 100
28 | Clc1cncc(Oc2cnc3nnn(Cc4ccc5ncccc5c4)c3n2)c1 [Compound 254] | 1 to 100
29 | OCCn1cnc(-c2ccc3nnn(Cc4ccc5ncccc5c4)c3n2)c1 [Compound 109] | 100 to 1000
30 | COc1cccc(-c2ccc3nnn(Cc4ccc5ncccc5c4)c3n2)c1 [Compound 88] | 1 to 100
31 | OC1CCN(c2ccc3nnn(Cc4ccc5ncccc5c4)c3n2)C1 (stereo not drawn) [Compound 246] | 1 to 100
32 | COc1ccc(Nc2ccc3nnn(Cc4ccc5ncccc5c4)c3n2)nc1 [Compound 234] | 100 to 1000
33 | CCn1cc(-c2cnc3nnn(Cc4cc5[nH]ncc5s4)c3n2)cn1 [Compound 25] | 1 to 100
34 | c1cn2cc(Cn3nnc4ncc(-c5cnn(C6CNC6)c5)nc43)ccc2n1 [Compound 290] | 1 to 100
35 | Cc1cc(Nc2ccc3nnn(Cc4ccc5ncccc5c4)c3n2)ccn1 [Compound 235] | 1 to 100
36 | CCn1cc(-c2ccc3nnn(Cc4ccc5ncccc5c4)c3n2)cn1 [Compound 95] | 1 to 100
37 | OCCn1cc(-c2ccc3nnn(Cc4c[nH]c5ncccc45)c3n2)cn1 [Compound 86] | 1 to 100
38 | FC(F)(F)Cn1cc(-c2cnc3nnn(Cc4ccc5ncnn5c4)c3n2)cn1 [Compound 52] | 1 to 100
39 | c1cnc2ccc(Cn3nnc4ccc(-c5ccc(N6CCOCC6)nc5)nc43)cc2c1 [Compound 63] | 1 to 100
40 | COCCn1cc(-c2cnc3nnn(Cc4cc5[nH]ncc5s4)c3n2)cn1 [Compound 45] | 1 to 100
41 | OCCNc1ccnc(Nc2cnc3nnn(Cc4ccc5ncccc5c4)c3n2)c1 [Compound 205] | 100 to 1000
42 | Cc1cccc(N(C)c2cnc3nnn(Cc4ccc5ncccc5c4)c3n2)n1 [Compound 154] | 100 to 1000

Row | SMILES | IC50 [nM]
43 | Cc1ccc(Nc2cnc3nnn(Cc4ccc5ncccc5c4)c3n2)cn1 [Compound 155] | 1 to 100
44 | O[C@@H]1CCC[C@H]1Nc1cc(Nc2cnc3nnn(Cc4ccc5ncccc5c4)c3n2)ccn1 [Compound 207] | 1 to 100
45 | c1cnc2ccc(Cn3nnc4ncc(Nc5cc[nH]n5)nc43)cc2c1 [Compound 198] | 1 to 100
46 | CCC(c1ccc2nccn2c1)n1nnc2ncc(-c3cnn(C)c3)nc21 (stereo not drawn) [Compound 326] | 1 to 100
47 | CN1CC[C@H](Nc2cc(Nc3cnc4nnn(Cc5ccc6ncccc6c5)c4n3)ccn2)C1 [Compound 229] | 1 to 100
48 | c1cc(Nc2cnc3nnn(Cc4ccc5ncccc5c4)c3n2)nc(N2CCOCC2)c1 [Compound 166] | 1 to 100
49 | CCn1cc(-c2cnc3nnn(Cc4csc5ncccc45)c3n2)cn1 [Compound 41] | 100 to 1000
50 | c1cncc(Nc2ccc3nnn(Cc4ccc5ncccc5c4)c3n2)c1 [Compound 237] | 1 to 100
51 | N#Cc1ccc(-c2cnc3nnn(Cc4cc5[nH]ncc5s4)c3n2)cn1 [Compound 282] | 1 to 100
52 | N#Cc1ccc(-c2cnc3nnn(Cc4ccn5nccc5c4)c3n2)cn1 [Compound 302] | 1 to 100
53 | Cc1csc(Nc2cnc3nnn(Cc4ccc5ncccc5c4)c3n2)n1 [Compound 172] | 1 to 100
54 | c1cnc2ccc(Cn3nnc4ccc(NC5CCOCC5)nc43)cc2c1 [Compound 253] | 1 to 100
55 | OCCn1cc(-c2cnc3nnn(Cc4ccn5ncnc5c4)c3n2)cn1 [Compound 317] | 100 to 1000
56 | Cc1coc(Nc2cnc3nnn(Cc4ccc5ncccc5c4)c3n2)n1 [Compound 199] | 1 to 100
57 | CCn1cc(-c2cnc3nnn(Cc4n[nH]c5ncccc45)c3n2)cn1 [Compound 49] | 1 to 100
58 | Cn1cc(-c2cnc3nnn(Cc4c[nH]c5ncccc45)c3n2)cn1 [Compound 1, 1-((1H-Pyrrolo[2,3-b]pyridin-3-yl)methyl)-6-(1-methyl-1H-pyrazol-4-yl)-1H-[1,2,3]-triazolo[4,5-b]pyrazine] | 1 to 100
59 | Cc1cnc2ccc(Cn3nnc4ncc(-c5cnn(C)c5)nc43)cn12 [Compound 298] | 1 to 100
60 | CN(C)Cc1ccc(-c2ccc3nnn(Cc4ccc5ncccc5c4)c3n2)s1 [Compound 105] | 100 to 1000
